Test [1] deals with D-[^3 H]--glucose uptake by BBMV from rat small intestine. The experiment in a line: D-[3H]-glucose uptake by intestinal BBMV. Format: biochemical. The note with it: 1 mM; for D-[3H]-glucose uptake 120 min: control 57 ± 2; for D-[3H]-glucose uptake 15 sec: control 67 ± 0.5. The procedure:
The intestinal BBMV fractions were prepared from mucosa of rat small intestine of rats using the modified magnesium- precipitation method as described by B. Steiger and H. Murer [Eur. J. Biochem., 135, 95 (1983)]. This intestinal BBMV fraction is analogous to the BBMV fraction isolated from kidney. […]

The subject of test [2] is ^14 C--succinate uptake by BBMV from rat small intestine. The experiment in a line: 14C-succinate uptake by intestinal BBMV. The note with it: 1 mM; for 14C-succinate uptake 120 min: control 78 ± 3; for 14C-succinate uptake 15 sec: control 118 ± 7. It is filed as biochemical.
Test [3] deals with T1, Na-Pi cotransporter (Rattus norvegicus, UniProt Q9JJ09).
T1 construct: The intestinal BBMV fractions were prepared from mucosa of rat small intestine; from tissue; host or cells: rat small intestine mucosa, brush border membrane vesicles
T1 sequence (Q9JJ09 1-695): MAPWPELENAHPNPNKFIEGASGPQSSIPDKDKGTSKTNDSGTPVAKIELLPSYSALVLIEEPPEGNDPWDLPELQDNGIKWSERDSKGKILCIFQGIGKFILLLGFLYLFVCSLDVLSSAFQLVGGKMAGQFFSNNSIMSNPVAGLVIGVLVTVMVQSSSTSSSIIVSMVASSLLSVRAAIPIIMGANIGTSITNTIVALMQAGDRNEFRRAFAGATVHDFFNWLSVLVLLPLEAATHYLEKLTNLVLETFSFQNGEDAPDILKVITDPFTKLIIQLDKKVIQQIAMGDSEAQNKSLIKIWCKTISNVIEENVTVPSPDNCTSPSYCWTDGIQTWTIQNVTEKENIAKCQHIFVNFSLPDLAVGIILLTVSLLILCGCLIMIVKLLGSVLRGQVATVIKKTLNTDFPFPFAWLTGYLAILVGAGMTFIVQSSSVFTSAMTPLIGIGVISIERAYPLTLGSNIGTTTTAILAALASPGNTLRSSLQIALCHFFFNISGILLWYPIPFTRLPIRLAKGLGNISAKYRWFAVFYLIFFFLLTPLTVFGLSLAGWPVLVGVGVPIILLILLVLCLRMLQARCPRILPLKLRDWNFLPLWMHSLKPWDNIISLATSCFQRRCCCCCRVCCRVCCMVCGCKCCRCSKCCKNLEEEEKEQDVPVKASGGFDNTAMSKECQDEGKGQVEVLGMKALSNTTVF
The experiment in a line: Na+-gradient-dependent 32Pi uptake by intestinal BBMV. It is filed as biochemical. The note with it: 1 mM; for effect on initial 32P uptake by intestinal BBMV (in words): FIG. 4, Table 7; for 32Pi-phosphate uptake 30 sec: initial phase, rat small intestine BBMV, control 75 ± 3. As for the experimental part: (§1) The intestinal BBMV fractions were prepared from mucosa of rat small intestine of rats using the modified magnesium- precipitation method as described by B. Steiger and H. Murer [Eur. J. Biochem., 135, 95 (1983)]. This intestinal BBMV fraction is analogous to the BBMV fraction isolated from kidney. The uptake of ^32 Pi in the presence of Na^+ -gradient [Nao^+ >Nai^+ ] was determined by a rapid filtration technique similar to that employed in the transport measurements on renal BBMV. The Na^+ -gradient [Nao^+ >Nai^+ ]-dependent Pi uptake in the initial phase was measured after 30 sec. The ^32 Pi uptake at equilibrium was measured at 180 min.

In test [4] the test system is Na-Pi cotransporter. The description is as above. The note with it: 1 mM; equilibrium; rat small intestine BBMV; control 151 ± 4. It is filed as biochemical, rat. As for the experimental part:
as §1

In test [5] the test system is thyroparathyroidectomized (TPTX) rats. The test can be described thus: Urinary excretion of Pi and other electrolytes after TPFA in vivo. Set-up: species or system rat; Phosphate excretion: unit not given here. As for the experimental part: Surgically thyroparathyroidectomized (TPTX) rats of 180-220 g body wt (Johnson Laboratories, Chicago, IL) were placed in metabolic cages and were fed 15 g of the low phosphate (P =0.07%) diet (ICN, Cleveland, OH) and 25 ml distilled water per day prior to and throughout the study (J. Clin. Invest. 67, 1347 (1981)). The animals were weighed daily. Urine samples (24-hour period) were collected each day for determination of urine volue, creatinine, Pi, Ca^++, Na^+ and K^+. After stabilization of rats on the low phosphate diet for 4 days, the "experimental" group of rats were injected with TPFA (500 mg/kg b wt) intraperitoneally, divided in two daily doses, while the "control" rats received the vehicle only. TPFA for i.p. injection was dissolved in distilled water and the control animals were injected with the same volume of NaCl solution containing the equimolar amount of Na^+. When appropriate, the results were evaluated statistically using student's t-test for either group or paired comparisons. Values of P >0.05 were considered nonsignificant (NS).

Where [6] appears, read: Day 1 (baseline), experimental group, TPTX rats.
[7] abbreviates: Day 2, TPFA 500 mg/kg per day i.p. on day 2 and day 3, TPTX rats.
Where [8] appears, read: Day 3, TPFA 500 mg/kg per day i.p. on day 2 and day 3, TPTX rats.
Where [9] appears, read: Day 4, after TPFA 500 mg/kg per day i.p. on day 2 and day 3, TPTX rats.

These results are taken from patent US4806532A, “Inhibition of epithelial phosphate transport” (Mayo Foundation for Medical Education and Research, priority 1985, dated 1989).

The structures appear in SMILES notation. Counter-ions that a name gives are not always drawn.

With `O=C(O)CP(=O)(O)O` [PAA, phosphonoacetic acid], in test [1], the “D-[3H]-glucose uptake 120 min” value is reported as 61 ± 3 pmoles/mg protein and the “D-[3H]-glucose uptake 15 sec” value amounted to 68 ± 3 pmoles/mg protein. In test [2], the “14C-succinate uptake 120 min” value was 89 ± 3 pmol/mg protein and the “14C-succinate uptake 15 sec” value worked out at 127 ± 2 pmol/mg protein. Further, in test [3], the “effect on initial 32P uptake by intestinal BBMV (in words)” value is listed as “markedly inhibited” and the “32Pi-phosphate uptake 30 sec” value is 51 ± 0.3 pmoles/mg protein. Moreover, in test [4], the “32Pi-phosphate uptake 180 min” value turned out to be 163 ± 6 pmoles/mg protein.

Take `O=C(O)P(=O)(O)O` [TPFA, Phosphonoformic acid, trisodium salt hexahydrate]: in test [1], the “D-[3H]-glucose uptake 120 min” value is 57 ± 2 pmoles/mg protein and the “D-[3H]-glucose uptake 15 sec” value was 69 ± 2 pmoles/mg protein. Besides, in test [2], the “14C-succinate uptake 120 min” value worked out at 81 ± 1 pmol/mg protein and the “14C-succinate uptake 15 sec” value was 125 ± 3 pmol/mg protein. Also, in test [5] (setting [6]), the Calcium excretion is on record as 0.3 ± 0.07 mmoles/mg creatinine, the Potassium excretion is listed as 7.3 ± 1.0 mmoles/mg creatinine and the Sodium excretion came to 6.8 ± 1.1 mmoles/mg creatinine. In addition, in test [5] (Day 1 (baseline, before injections on day 2 and 3), experimental group, TPTX rats on low phosphate diet, relative to creatinine, mean ± SEM of 8-9 rats), the Phosphate excretion is 11.8 ± 6.0. In test [5] (Day 2, TPFA 500 mg/kg per day i.p. in two doses on day 2 and day 3, TPTX rats, low phosphate diet, relative to creatinine), this compound registered a Phosphate excretion of 30.8 ± 6.6. Besides, in test [5] (setting [7]), the Calcium excretion was 0.2 ± 0.09 mmoles/mg creatinine, the Potassium excretion came to 7.6 ± 1.1 mmoles/mg creatinine and the Sodium excretion amounted to 8.0 ± 1.1 mmoles/mg creatinine. For the same compound, in test [5] (Day 3, TPFA 500 mg/kg per day i.p. in two doses on day 2 and day 3, TPTX rats, significantly increased vs Day 1 (P < 0.025)), the Phosphate excretion amounted to 122.1 ± 37.8. Besides, in test [5] (setting [8]), the Calcium excretion is 0.3 ± 0.2 mmoles/mg creatinine, the Potassium excretion worked out at 11.8 ± 3.9 mmoles/mg creatinine and the Sodium excretion was found to be 19.4 ± 11.6 mmoles/mg creatinine. Moreover, in test [5] (setting [9]), the Calcium excretion came out at 0.6 ± 0.5 mmoles/mg creatinine, the Phosphate excretion is reported as 79.8 ± 46.9, the Potassium excretion is listed as 12.9 ± 5.3 mmoles/mg creatinine and the Sodium excretion worked out at 15.1 ± 7.0 mmoles/mg creatinine. Also, in test [5] (TPFA i.p. in two daily doses, TPTX rats on low phosphate diet, FIG. 3), the “urinary excretion of Pi (in words)” value is reported as “severalfold increase”. Besides, the “urinary excretion of Na+, K+ or calcium (in words)” value in test [5] (TPFA i.p. in two daily doses, TPTX rats, same urine samples) is listed as “did not change”. Besides, in test [3], the “effect on initial 32P uptake by intestinal BBMV (in words)” value was “markedly inhibited” and the “32Pi-phosphate uptake 30 sec” value is 44 ± 2 pmoles/mg protein. Further, the “32Pi-phosphate uptake 180 min” value in test [4] was found to be 146 ± 5 pmoles/mg protein.
